According to patent US20250230155A1 (Vanderbilt University, priority 2021, published 2025):

Target: T1, human mAChR M4 (Homo sapiens, UniProt P08173)
T1 construct: expressed in transfected cells
T1 sequence (P08173 1-479): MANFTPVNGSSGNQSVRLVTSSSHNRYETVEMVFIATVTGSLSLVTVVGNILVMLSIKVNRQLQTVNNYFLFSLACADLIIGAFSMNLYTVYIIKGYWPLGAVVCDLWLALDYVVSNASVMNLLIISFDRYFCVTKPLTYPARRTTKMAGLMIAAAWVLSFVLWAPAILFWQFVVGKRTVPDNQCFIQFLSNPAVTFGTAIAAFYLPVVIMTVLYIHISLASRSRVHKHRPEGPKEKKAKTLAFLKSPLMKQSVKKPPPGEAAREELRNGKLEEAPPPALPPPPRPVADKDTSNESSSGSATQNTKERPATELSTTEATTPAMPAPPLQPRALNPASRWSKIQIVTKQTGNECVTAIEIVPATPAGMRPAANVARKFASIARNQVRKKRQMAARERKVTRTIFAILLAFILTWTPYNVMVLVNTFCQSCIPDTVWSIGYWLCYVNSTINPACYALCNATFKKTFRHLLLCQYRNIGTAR
Assay: mAChR M4 cell-based functional assay (calcium mobilization, CHO-K1 hM4-Gqi5 cells)
Settings: for Emax at 30 µM: CHO-K1, % ACh maximum at 30 μM; for EC50: positive allosteric modulator activity, increase in the EC20 acetylcholine response, CHO-K1 hM4-Gqi5 cells, read-out: Human M4 EC50
Method: Human and rat M4 cDNAs, along with the chimeric G protein Gqi5, were transfected into Chinese hamster ovary (CHO-K1) cells purchased from the American Type Culture Collection using Lipofectamine2000. hM4-Gqi5 cells were grown in Ham's F-12 medium containing 10% heat-inactivated fetal bovine serum (FBS), 20 mM HEPES, 50 μg/mL G418 sulfate, and 500 μg/mL Hygromycin B. rM4-Ggi5 cells were grown in DiVEM containing 10% heat-inactivated FBS, 20 mM THEPES, 400 μμg/mL G418 sulfate, and 500 μμg/mL Hygromycin B.
For high throughput measurement of agonist-evoked increases in intracellular calcium, CHO-K1 cells stably expressing muscarinic receptors were plated in growth medium lacking G418 and hygromycin at 15,000 cells/20 μL/well in Greiner 384-well black-walled, tissue culture (TC)-treated, clear-bottom plates (VWR). Cells were incubated overnight at 37° C. and 5% CO2. The next day, cells were washed using an ELX 405 (BioTek) with assay buffer; the final volume was then aspirated to 20 μL. Next, 20 μL of a […] of Fluo-4/acetoxymethyl ester (Invitrogen, Carlsbad, CA), prepared as a 2.3 mM stock in DMSO and mixed in a 1:1 ratio with 10% (w/v) Pluronic F-127 and diluted in assay buffer, was added to the wells and the cell plates were incubated for 50 min at 37° C. and 5% C02. Dye was removed by washing with the ELX 405 and the final volume was aspirated to 20 μL. Compound master plates were formatted in an 11 point concentration-response curve (CRC) format (1:3 dilutions) in 100% DMSO with a starting concentration of 10 mM using a BRAVO liquid handler (Agilent). Test compound CRCs were then transferred to daughter plates (240 nL) using the Echo acoustic plate reformatter (Labcyte, Sunnyvale, CA) and then diluted into assay buffer (40 μL) to a 2× stock using a Thermo Fisher Combi (Thermo Fisher Scientific, Waltham, MA).
Calcium flux was measured using the Functional Drug Screening System (FDSS) 6000 or 7000 (Hamamatsu Corporation, Tokyo, Japan) as an increase in the fluorescent static ratio. Compounds were applied to cells (20 μL, 2×) using the automated system of the FDSS at 2-4 seconds into the protocol and the data were collected at 1 Hz. At 144 seconds, 10 μL of an EC20 concentration of the muscarinic receptor agonist acetylcholine was added (5×), followed by the addition of 12 μL of an EC80 concentration of acetylcholine at the 230 second time point (5×). Agonist activity was analyzed as a concentration-dependent increase in calcium mobilization upon compound addition. Positive allosteric modulator activity was analyzed as a concentration-dependent increase in the EC20 acetylcholine response. Antagonist activity was analyzed as a concentration-dependent decrease in the EC80 acetylcholine response. Concentration-response curves were generated using a four-parameter logistical equation in XLFit curve fitting software (IDBS, Bridgewater, NJ) for Excel (Microsoft, Redmond, WA) or Prism (GraphPad Software, Inc., San Diego, CA).
Compounds were synthesized as described above. Activity (EC50 and Emax) was determined in the mAChR M4 cell-based functional assay as described above and the data are shown in Table 2. The compound number corresponds to the compound numbers used in Table 1.

Emax at 30 µM (human M4) [%]	EC50 [nM]	Emax (% ACh maximum at 30 μM, human M4) [%]	SMILES	Emax (CHO-K1) [%]
87	262		Cc1cc(C(=O)NCc2ccncc2)cnc1N1CCc2ncc(-c3cccnc3F)cc2C1 [compound 178, 6-[3-(2-fluoro-3-pyridyl)-7,8-dihydro-5H-1,6-naphthyridin-6-yl]-5-methyl-N-(4-pyridylmethyl)pyridine-3-carboxamide]	
101	3870		Cc1cc(C(=O)N2CC3CC3C2)nnc1N1CCc2ncc(C(F)(F)F)cc2C1 (stereo not shown) [Example 504, (3-azabicyclo[3.1.0]hexan-3-yl)(5-methyl-6-(3-(trifluoromethyl)-7,8-dihydro-1,6-naphthyridin-6(5H)-yl)pyridazin-3-yl)methanone]	
101	36		Cc1cnccc1CNC(=O)c1nnc(N2CCc3ncc(C(F)(F)F)cc3C2)c(C)c1C [Example 464, 4,5-dimethyl-N-((3-methylpyridin-4-yl)methyl)-6-(3-(trifluoromethyl)-7,8-dihydro-1,6-naphthyridin-6(5H)-yl)pyridazine-3-carboxamide]	
92	12		Cc1cc(Nc2cnc3c(c2)CN(c2nnc(C#N)c(C)c2C)CC3)c(F)cn1 [Example 614, 6-(3-((5-fluoro-2-methylpyridin-4-yl)amino)-7,8-dihydro-1,6-naphthyridin-6(5H)-yl)-4,5-dimethylpyridazine-3-carbonitrile]	
73	41		Cc1cc(C(=O)N2CC(F)(F)C2)nnc1N1CCc2ncc(Nc3ccnn3C)cc2C1 [Example 566, (3,3-difluoroazetidin-1-yl)(5-methyl-6-(3-((1-methyl-1H-pyrazol-5-yl)amino)-7,8-dihydro-1,6-naphthyridin-6(5H)-yl)pyridazin-3-yl)methanone]	
50	940		Cc1c(C#N)nnc(N2CCc3ncc(-c4ccnc(Cl)c4F)cc3C2)c1C [compound 73, 6-[3-(2-chloro-3-fluoro-4-pyridyl)-7,8-dihydro-5H-1,6-naphthyridin-6-yl]-4,5-dimethyl-pyridazine-3-carbonitrile]	
84	1150		Cc1cc(C(=O)NCc2cccc3cccnc23)cnc1N1CCc2ncccc2C1 [compound 156, 6-(7,8-dihydro-5H-1,6-naphthyridin-6-yl)-5-methyl-N-(8-quinolylmethyl)pyridine-3-carboxamide]	

More lines, now with the values behind:

SMILES	Emax at 30 µM (human M4) [%]	EC50 [nM]	Emax (% ACh maximum at 30 μM, human M4) [%]	Emax (CHO-K1) [%]
Cc1cc(C#N)cnc1N1CCc2ncc(C(F)F)cc2C1 [Example 307, 6-(3-(difluoromethyl)-7,8-dihydro-1,6-naphthyridin-6(5H)-yl)-5-methylnicotinonitrile]		162		100
Cc1cc(-c2cnc3c(c2)CN(c2nnc(C(=O)NCc4ccncc4)c(C)c2C)CC3)ccn1 [compound 189, 4,5-dimethyl-6-[3-(2-methyl-4-pyridyl)-7,8-dihydro-5H-1,6-naphthyridin-6-yl]-N-(4-pyridylmethyl)pyridazine-3-carboxamide]	93	199		
Cc1cc(C#N)nnc1N1CCc2ncc(Oc3ccccc3F)cc2C1 [Example 396, 6-(3-(2-fluorophenoxy)-7,8-dihydro-1,6-naphthyridin-6(5H)-yl)-5-methylpyridazine-3-carbonitrile]	87	65		
[2H]C1([2H])Cc2ncc(Nc3cccnc3C)cc2C([2H])([2H])N1c1nnc(C#N)cc1C [Example 604, 5-methyl-6-(3-((2-methylpyridin-3-yl)amino)-7,8-dihydro-1,6-naphthyridin-6(5H)-yl-5,5,7,7-d4)pyridazine-3-carbonitrile]	83	158		
Cc1cc(C(=O)NCc2ccc(-n3ccnc3)nc2)cnc1N1CCc2ncccc2C1 [compound 148, 6-(7,8-dihydro-5H-1,6-naphthyridin-6-yl)-N-[(6-imidazol-1-yl-3-pyridyl)methyl]-5-methyl-pyridine-3-carboxamide]	67	3540		
Cc1cc(C(=O)NCc2cnc3ccccc3c2)cnc1N1CCc2ncc(C(F)(F)F)cc2C1 [Example 446, 5-methyl-N-(quinolin-3-ylmethyl)-6-(3-(trifluoromethyl)-7,8-dihydro-1,6-naphthyridin-6(5H)-yl)nicotinamide]	87	1140		
Cc1cc(C#N)cnc1N1CCc2ncc(-c3ccnc(F)c3)cc2C1 [Example 340, 6-(3-(2-fluoropyridin-4-yl)-7,8-dihydro-1,6-naphthyridin-6(5)-yl)-5-methylnicotinonitrile]	81	7550		
Cc1c(C#N)nnc(N2CCc3ncc(Nc4ncccc4F)cc3C2)c1C [compound 80, 6-[3-[(3-fluoro-2-pyridyl)amino]-7,8-dihydro-5H-1,6-naphthyridin-6-yl]-4,5-dimethyl-pyridazine-3-carbonitrile]	72	300		
Cc1cc(C(=O)NCc2csc3ccccc23)cnc1N1CCc2ncccc2C1 [compound 128, N-(benzothiophen-3-ylmethyl)-6-(7,8-dihydro-5H-1,6-naphthyridin-6-yl)-5-methyl-pyridine-3-carboxamide]	74	1150		
Cc1cc(C#N)nnc1N1CCc2ncc(C3CC3)cc2C1 [Example 393, 6-(3-cyclopropyl-7,8-dihydro-1,6-naphthyridin-6(5H)-yl)-5-methylpyridazine-3-carbonitrile]		111		88
COc1ccc(-c2cnc3c(c2)CN(c2nc(C)nc(C)c2C)CC3)cn1 [compound 230, 3-(6-methoxypyridin-3-yl)-6-(2,5,6-trimethylpyrimidin-4-yl)-5,6,7,8-tetrahydro-1,6-naphthyridine]	65	279		
Cc1cc(C#N)cnc1N1CCc2ncc(Cc3ccccc3F)cc2C1 [Example 365, 6-(3-(2-fluorobenzyl)-7,8-dihydro-1,6-naphthyridin-6(5H)-yl)-5-methylnicotinonitrile]	89	358		
Cc1cc(C(=O)N2CC(c3cccnc3)C2)nnc1N1CCc2ncc(-n3cccn3)cc2C1 [Example 535, (6-(3-(1H-pyrazol-1-yl)-7,8-dihydro-1,6-naphthyridin-6(5H)-yl)-5-methylpyridazin-3-yl)(3-(pyridin-3-yl)azetidin-1-yl)methanone]	84	85		
Cc1cc(C(=O)NCc2cccnc2)cnc1N1CCc2ncccc2C1 [compound 60, 6-(7,8-dihydro-5H-1,6-naphthyridin-6-yl)-5-methyl-N-(3-pyridylmethyl)pyridine-3-carboxamide]	61	4720		
Cc1cc(C#N)cnc1N1Cc2cc(N3CCOCC3)cnc2C(C)C1 (single isomer, unassigned) [Example 406, 5-methyl-6-(8-methyl-3-morpholino-7,8-dihydro-1,6-naphthyridin-6(5H)-yl)nicotinonitrile]		326	96	
Cc1cc(C#N)c(-c2cccn2C)nc1N1CCc2ncc(C(F)(F)F)cc2C1 [Example 372, 5-methyl-2-(1-methyl-1H-pyrrol-2-yl)-6-(3-(trifluoromethyl)-7,8-dihydro-1,6-naphthyridin-6(5H)-yl)nicotinonitrile]	55	5800		
